# Laboratory results as given in US11123350B2, “Metal delivery agents and therapeutic uses of the same” (THE UNIVERSITY OF MELBOURNE, priority 2006, dated 2021).
# Residues, ends and D or L forms follow the SMILES beside them. *: point of attachment. Cbz = O=C(OCc1ccccc1)*; CH2F = FC*
# Tests used:
# G93A-SOD1 mice = details: other reported pharmacological treatments (literature); cited from earlier work
# [1] = test system: PI3K (Akt phosphorylation); experiment: Western blot for PI3K activation (Akt phosphorylation) in APP-CHO cells; type: cell-based, Chinese Hamster; details: 10 μM, 6 hr
# Description: (§1) APP-CHO cells were treated with 10 μM metal-BTSC complexes for 6 hr and cell lysates examined for activation of PI3K and MAPK signal pathways.
# (§2) APP-CHO cells were treated with 10 μM metal-BTSC complexes for 6 hr. Cells were extracted into Phosphosafe (Novagen) lysis buffer and proteins separated by gel-electrophoresis on 12% tris-glycine gels. Proteins were transferred to PVDF membranes and blocked with milk powder for 1 hr. Blots were then probed for total and phosphorylated forms of Akt, JNK and GSK3 using antibodies from Cell Signaling Technologies. After detection with secondary antisera (HRP-labelled), blots were analyzed for signals using chemiluminescence analysis on a GeneGnome image scanner. Activation of PI3K is shown by increased levels of phosphorylated Akt (p-Akt). Activated JNk is shown by increased p-JNK. Increased levels of deactivated GSK3 is shown by increased p-GSK3.
# JNK = experiment: Western blot for JNK activation (p-JNK) in APP-CHO cells; type: cell-based, Chinese Hamster; details: 10 μM, 6 hr
# Description: as §1, §2
# Aβ1-40 = experiment: Extracellular Aβ1-40 in conditioned medium of APP-CHO cells (ELISA); type: cell-based, Chinese Hamster; details: 6 hr; for effect on Aβ1-40 levels at lower dose: 1 μM
# Description: […] treatment regimes were used namely a control, 1 μM, 5 μM, 10 μM, 25 μM and 50 μM (FIG. 3). APP-transfected CHO cells were treated with each of the doses of [Cu(GTSM)] for 6 hr in serum-free medium and conditioned medium was then collected and assayed for Aβ1-40 peptide by routine […].
# Five treatment regimes were used namely a control, 1 ? M, 5 ? M, 10 ? M, 25 ? M and 50 ? M (FIG. 4). APP-transfected CHO cells were treated with each of the doses of [Zn(BTSC)] for 6 hr in serum-free medium and conditioned medium was then collected and assayed for Aβ1-40 peptide by routine Aβ ELISA.
# Generation of APP-transfected Chinese Hamster Ovary (CHO) APP-CHO cells were generated by expressing the 695-amino acid APP cDNA in the pIRESpuro2 expression vector (Clontech, Mountain View, Calif., USA). Cells were transfected using Lipofectamine 2000 and cultured in RPMI-1640 media supplemented with 1 mM glutamine and 10% fetal bovine serum (all from Invitrogen, Mount Waverley, Victoria, Australia). Transfected cells were selected and maintained using 7.5 μg/ml puromycin (Sigma-Aldrich).
# Treatment of cells with Complexes. APP-CHO cells were passaged at a ratio of 1:5 and grown in 6 well plates for 3 days before experiments. Compounds were prepared as a 10 mM stock solution in DMSO and added to serum-free RPMI medium supplemented with puromycin. Medium was briefly mixed by aspiration prior to addition to cells. Control cultures were treated with vehicle (DMSO) alone. Cultures were incubated for 6 hr and conditioned media taken for measurement of […] levels by ELISA.
# Double antibody capture enzyme-linked immunosorbent assay (ELISA) for Aβ detection. Aβ levels were determined in culture medium using the 384 well Aβ1-40 ELISA protocol. 384 well plates were coated with monoclonal antibody (mAb) G2-10 in carbonate-bicarbonate coating buffer (pH 9.6) for Aβ1-40 detection. The plates were left to incubate overnight at 4° C. with rocking. The plates were then washed three times with PBST at RT with rocking and the solution discarded after each wash. Then 100 μL of 0.5% (w/v) hydrolyzed casein in PBS (pH 7.4) was added to each well and left to incubate for 2 hr at 37° C. to prevent non-specific binding. The plates were then washed three times with PBST at RT with rocking. 20 ng of biotinylated mAb WO2 (epitope at Aβ5-8) was added to each well of the plates (10 μL/well at […]). 50 μL/well of Aβ1-40 standard peptide samples (MHRI, Melbourne, Australia), cell culture medium samples and the blanks were added. The plates were left to incubate overnight at 4° C. with rocking. The plates were washed nine times with PBST at RT with rocking. 25 μL streptavidin-labelled europium was added at a dilution of 1:1000. Plates were then washed ten times with PBST where the 9th and 10th wash was left on for 5 min before discarding. To develop the plates 80 μL of enhancement solution was added to each well and plates were read in a WALLAC Victor^2 plate reader with excitation (Ex) at 340 nm and emission (Em) at 613 nm. Aβ1-40 peptide standards and samples were assayed in triplicate. The values obtained from the triplicate wells were used to calculate the […] concentration (expressed as ng/mL) based on the standard curve generated on each plate and are given in Table 3.
# APP-CHO cells were treated with 10 μM [Zn(ATSE)] with or without specific inhibitors of PI3K (LY294002), JNK (SP600125) or p38 (SB203580) (25 μM of each) for 6 hr and conditioned medium analyzed for levels of Aβ1-40 by routine ELISA.
# EGFR = EGFR phosphorylation (tyr1068) in U87MG-EGFR cells (Western blot); type: cell-based; details: added to CuGTSM-treated cells (25 μM CuGTSM)
# Description: Transfected U87MG-EGFR cells were treated with 25 μM CuGTSM or DMSO as vehicle control for 5 hr and EGFR phosphorylation (tyr1068) determined by Western blot. Antisera to EGFRtyr1068 was routinely used as this is one of the critical tyrosine residues involved in EGFR activation and downstream signaling. It is also routinely reported in the literature on EGFR activation.
# ERK, GSK3 and JNK = experiment: Downstream phosphorylation of ERK, GSK3 and JNK in U87MG-EGFR cells (Western blot); type: cell-based; details: 25 μM CuGTSM plus 10 μM PD153035; not completely ablated
# Description: A study was carried out to determine if kinase pathways modulated by CuGTSM were mediated by activation of EGFR. This was done by treating U87MG-EGFR cells with 25 μM DMSO, CuGTSM, CuGTSM plus 10 μM PD153035 (EGFR inhibitor), or 10 μM PD153035 alone. The activation of ERK, GSK3 and JNK was then determined by Western blot.
# [2] = test system: APP-transfected CHO cells; experiment: Cellular zinc uptake of Zn-BTSC complexes (ICP-MS), with or without Cu2+; type: cell-based, Chinese Hamster; details: 6 hr
# Description: It was known that copper can transmetallate [Zn(BTSC)] complexes. Therefore, if [Zn(BTSC)] complexes were administered to the culture medium in the presence of exogenous Cu^2+, we would expect [Cu(BTSC)] complexes to form. To examine this, cells were exposed to 10 μM [Zn(ATSE)] or [Zn(ATSP)] with or without 5-50 μM Cu^2+ for 6 hr.
# Supernatant was discarded and cell pellets frozen at −70° C. until metal levels were determined by inductively-coupled plasma mass spectrometry (ICP-MS) at the Department of Pathology, University of Melbourne. […] [Zn(ATSM)] and [Zn(ATSE)] induced 8.2±0.25 and 9.8±0.9-fold increases in cellular Zn levels respectively when compared to untreated controls (FIG. 2).
# To examine this, cells were exposed to 10 μM [Zn(ATSE)] or [Zn(ATSP)] with or without 5-50 μM Cu^2+ for 6 hr. Co-treatment of cells with Cu and the Zn-BTSC complexes reduced the level of Zn uptake compared to Zn-BTSC alone (FIG. 5).
# GSK3 = experiment: Western blot for GSK3 phosphorylation and expression in APP-CHO cells; type: cell-based, Chinese Hamster; details: 10 μM, 6 hr
# Description: as §1, §2
compound,measurement,setting,value
CCN1C=CN(CC)C1=C1C2=NC(=C(c3n(CC)cc[n+]3CC)C3=NC(=C(c4n(CC)cc[n+]4CC)c4ccc([n-]4)C(c4n(CC)cc[n+]4CC)=C4C=CC1=N4)C=C3)C=C2.[Cl-].[Cl-].[Cl-].[Cl-].[Cl-].[Mn+3] [AEOL 10150],Increased Life Span,G93A-SOD1 mice,20 days
CO/N=C(\C(=O)N[C@@H]1C(=O)N2C(C(=O)O)=C(CSc3nc(=O)c(=O)[nH]n3C)CS[C@H]12)c1csc(N)n1 [Ceftriaxone],Increased Life Span,G93A-SOD1 mice,10 days
CN(CC(=O)O)C(=N)N [Creatine],Increased Life Span,G93A-SOD1 mice,20 days
CCNC1=N[N+]2=C(C)C(C)=[N+]3N=C(NCC)[S][Cu-2]23[S]1 [CuATSE],activation of PI3K (Akt phosphorylation),[1],did not induce activation
same,activation of JNK,JNK,did not induce activation
CC(=N\NC([S-])=Nc1ccccc1)/C(C)=N/NC([S-])=Nc1ccccc1.[Cu+2] [CuATSP],activation of PI3K (Akt phosphorylation),[1],did not induce activation
same,activation of JNK,JNK,did not induce activation
CNC(=S)NN=CC=NNC(=S)NC [GTSMH2],effect on extracellular Aβ1-40 levels,"Aβ1-40; 1-50 μM, serum-free medium",very small reduction
COc1cc2ncnc(Nc3cccc(Br)c3)c2cc1OC [PD153035],effect on CuGTSM-induced activation of EGFR,EGFR,inhibited activation
same,"CuGTSM-induced phosphorylation of JNK, GSK3 and ERK","ERK, GSK3 and JNK",decrease
Nc1nc2ccc(OC(F)(F)F)cc2s1 [Riluzole],Increased Life Span,G93A-SOD1 mice,10 to 15 days
"C[S+]([O-])c1ccc(-c2nc(-c3ccncc3)c(-c3ccc(F)cc3)[nH]2)cc1 (stereo not shown) [SB203580, reference compound]",effect of kinase inhibitor on the loss of Aβ by [Zn(ATSE)],Aβ1-40; 25 μM inhibitor with 10 μM [Zn(ATSE)],no effect
CCNC1=NN=C(C)C(C)=NN=C(NCC)[S][Zn][S]1 [[Zn(ATSE)]],activation of PI3K (Akt phosphorylation),[1],induced activated
same,activation of JNK,JNK,induced activated
same,fold increase in cellular zinc levels,[2]; 10 μM complex alone,9.7±0.7 fold
same,fold increase in intracellular zinc,[2]; 10 μM complex in the presence of 10 μM Cu2+,2.9±0.3 fold
same,fold increases in cellular Zinc levels,"[2]; APP-CHO cells, 1-50 μM, vs untreated controls",9.8±0.9 fold
same,GSK3 expression,GSK3,increased
same,phosphorylation (de-activation) of GSK3,GSK3,induced down-stream phosphorylation
same,effect on Aβ1-40 levels at lower dose,Aβ1-40,greater reductions
same,effect on Aβ1-40 levels at lower dose,Aβ1-40; listed as Zn-ATSE,inhibited
CC1=[N+]2N=C(Nc3ccccc3)[S][Zn]23[S]C(Nc2ccccc2)=N[N+]3=C1C [[Zn(ATSP)]],activation of PI3K (Akt phosphorylation),[1],did not induce activation
same,activation of JNK,JNK,did not induce activation
same,GSK3 expression,GSK3,small increase
CCNC1=NN=C2CCCCC2=NN=C(NCC)[S][Zn][S]1 [[Zn(ChexTSE)]],effect on Aβ1-40 levels at lower dose,Aβ1-40,greater reductions
same,effect on Aβ1-40 levels at lower dose,Aβ1-40; listed as Zn-Chex TSE,inhibited
COC(=O)C[C@H](NC(=O)[C@H](C)NC(=O)[C@@H](NC(=O)OCc1ccccc1)C(C)C)C(=O)CF [zVAD-fink] (Cbz-Val-Ala-Asp(OMe)-CH2F),Increased Life Span,G93A-SOD1 mice,27 days
Vitamin E,Increased Life Span,G93A-SOD1 mice,No effect
